# In patent publication US10054581B1, “Inhibitors of notch signaling pathway and use thereof in treatment of cancers” (Ecole Polytechnique Federale de Lausanne (EPFL), priority 2011, dated 2018):
# Entries after “also recorded” stand apart in the source; their conditions may differ.
# Columns and labels:
# HPB ALL = assay: Annexin V apoptosis, HPB ALL; type: cell-based, human; settings: 10 μM, 7 days
# Experimental: (§1) FIGS. 6A-6D show 6-(4-Tert-Butylphenoxy)Pyridin-3-Amine (I3) induces G0/G1 cell cycle arrest and apoptosis in human T cell acute lymphoblastic leukemia cell lines and human breast cancer cell line HCC1187. […] Percentage of Annexin V positive (apoptotic) cell population was measured using flow cytometry.
# (§2) To quantitate the percentage of apoptotic cells, AnnexinV and 7AAD staining was performed. Thymic cells were suspended in 300 μl of 1× AnnexinV binding buffer (BD Biosciences, San Diego, USA) and incubated with 10 μl of AnnexinV-Cy5 antibody and 10 μl of 7AAD (BD Biosciences, San Diego, USA). Samples were incubated for 15 minutes at room temperature. FACS was performed with in one hour of antibody staining.
# (§3) This 6-(4-Tert-Butylphenoxy)Pyridin-3-Amine (I3) mediated proliferative arrest could be due to induction of apoptosis or cell cycle arrest during different phases of cell cycle. […] Therefore to further elucidate the mechanisms responsible for 6-(4-Tert-Butylphenoxy)Pyridin-3-Amine (I3) mediated proliferative arrest cell cycle and apoptosis analyses were carried out. […] To investigate cell death, Annexin V staining was performed and proportion of apoptotic (AnnexinV positive) cell population was determined by flow cytometry analyses after 7 days of treatment.
# [1] = test system: NICD/MAML1 Notch transcriptional activation complex; assay: MAML1 rescue: HeLa cells co-transfected with NICD and MAML1-FLAG, 12×CSL luciferase; type: cell-based; settings: 24 hours
# Experimental: HeLa cells were co-transfected 800 ng of NICD+3 μg of pCDNA3.1 or 800 ng of NICD+1 μg of MAML1-FLAG or 800 ng of NICD+3 μg of MAML1-FLAG expression vectors. To measure Notch pathway activation, pGL4.26-12×CSL luciferase plasmid was also introduced into the cells. SV40 renilla was used as an internal control. Cells transfected with different combinations and amounts of plasmid were treated with DMSO or increasing concentration of 6-(4-Tert-Butylphenoxy)Pyridin-3-Amine (I3) (1, 2.5, 5 and 10 μM) for 24 hours. 12×CSL driven luciferase activity was measured using dual luciferase assay system.
# NICD-GFP overexpression studies were performed using pEGFP-C1-NICD expression plasmid. The FLAG-CMV2 plasmid expressing MAML1-FLAG was a kind gift from Dr. Lizi Wu, Harvard Medical School, Boston.
# To further investigate the mechanism of action of 6-(4-Tert-Butylphenoxy)Pyridin-3-Amine (I3), Applicants speculated that 6-(4-Tert-Butylphenoxy)Pyridin-3-Amine (I3) might be targeting one of the components of the transcriptional activation complex. The over expression of this target protein may titrate out 6-(4-Tert-Butylphenoxy)Pyridin-3-Amine (I3) compound and thus rescue 6-(4-Tert-Butylphenoxy)Pyridin-3-Amine (I3) induced pathway inhibition. […] The Notch pathway activation was measured by introducing 12×CSL luciferase plasmid. […]
# RPMI8402 = assay: Cell cycle analysis (Ki67 and Hoechst stain), RPMI8402; type: cell-based, human; settings: 10 μM
# Experimental: as §1
# In addition to induction of apoptosis, the proliferative arrest observed in 6-(4-Tert-Butylphenoxy)Pyridin-3-Amine (I3) treated human leukemic cell lines and breast cancer cell line also appears to be due to cell cycle arrest in G0/G1 phase of the cell cycle. Leukemic cell lines (RPMI8402, KOPTK1 and TALL1) and breast cancer cell lines were treated with 6-(4-Tert-Butylphenoxy)Pyridin-3-Amine (I3) for 48 hours and cell cycle status was determined using Ki67 and Hoechst stain.
# [2] = test system: nRas driven melanoma cell lines; assay: Alamar blue proliferation assay, nRas driven melanoma cells; type: cell-based, human; settings: 10 μM, 4 days
# Experimental: Human T-ALL cell lines RPMI 8402 and KOPTK1, and pancreatic cancer cell line PANC1 as well as nRas driven melanoma cells were seeded in a 96 well plate and treated with 10 μM concentration of 6-(4-Tert-Butylphenoxy)Pyridin-3-Amine (I3) and DAPT for several days. Their growth inhibitory effects were compared with cells treated with equal amount of DMSO. Using Alamar blue assay, the growth kinetics of RPMI 8402 and KOPTK1 were followed for upto 6 days, while PANC1 and nRas melanoma cells were monitored for 4 days. 6-(4-Tert-Butylphenoxy)Pyridin-3-Amine (I3) treatment of RPMI 8402, KOPTK1. […] Statistical analyses were done using student's t.test. *=p value<0.05. ns=not significant.
# Alamarblue® proliferation assays were performed to determine the growth kinetics of Notch inhibitor treated cells. Alamar Blue® consists of a cell permeable substrate resazurin. In metabolically active and proliferating cells, resazurin is converted to resorufin due to an intrinsic reducing power of live cells and produces a red fluorescence. Therefore production of resorufin serves as an indicator of the viability of the cell population.
# Proliferation assays were performed by seeding 5000 cells/well in a 96 well plate. Cells were treated with DMSO or Notch inhibitors for different time intervals. […] Alamarblue readout was taken using Tecan F500 (Tecan) multiplate reader. […]
# TALL1 = assay: Annexin V apoptosis, TALL1; type: cell-based, human; settings: 10 μM, 7 days
# Experimental: as §1, §2, §3
# [3] = test system: intestinal tissue (goblet cells); assay: Intestinal toxicity in mice (Alcian blue staining for goblet cells); type: in vivo, mouse
smiles,measurement,setting,value
"CC(C)(C)c1ccc(Oc2ccc(N)cn2)cc1 [I3, 6-(4-Tert-Butylphenoxy)Pyridin-3-Amine]",apoptosis (Annexin V positive cells),HPB ALL,induces significant apoptosis
same,"Notch signalling, NICD + 1 μg MAML1","[1]; 800 ng NICD + 1 μg MAML1-FLAG, I3 1-10 μM",can block Notch signalling in a concentration dependent manner
same,"Notch signalling, NICD alone (no MAML1)","[1]; 800 ng NICD, I3 1, 2.5, 5 and 10 μM",can block Notch signalling in a concentration dependent manner; also recorded: could block Notch signalling activations
same,cell cycle status,RPMI8402; 48 hours,induces an arrest in the G0/G1 phase of the cell cycle
same,increase in cells arrested in G0/G1 phase of the cell cycle,"RPMI8402; stated jointly for RPMI8402, KOPTK1 and TALL1",20-30%
same,proliferation (Alamar blue),[2],significantly inhibited the growth; also recorded: caused a significant reduction in their growth potential
same,apoptosis (Annexin V positive cells),TALL1,induces significant apoptosis
same,intestinal architecture / goblet cell metaplasia,"[3]; C57B16 mice, 25 mg/kg i.p., 7 consecutive days, analysed day 8, 25 mg/kg",completely normal with intact architecture and no indication of goblet cell metaplasia; also recorded: did not perturb intestinal homeostasis and without any indication of goblet cell accumulation
same,goblet cell numbers and intestinal architecture,"[3]; NOD/SCID γc−/− mice with RPMI 8402 xenotransplant, treated for 27 days",did not reveal any abnormality in the goblet cell numbers and intestinal architecture
